In patent US20010046684A1, “Methods of structure-based drug design using MS/MNR” (priority 2000, published 2001):

How the values were obtained:
MMP-1 [1] = biological target: T1, MMP-1 (Homo sapiens, UniProt P03956); details: Inhibitors of MMP-1; compounds having known affinities, previously tested; cited from earlier work
T1 sequence (P03956 100-469): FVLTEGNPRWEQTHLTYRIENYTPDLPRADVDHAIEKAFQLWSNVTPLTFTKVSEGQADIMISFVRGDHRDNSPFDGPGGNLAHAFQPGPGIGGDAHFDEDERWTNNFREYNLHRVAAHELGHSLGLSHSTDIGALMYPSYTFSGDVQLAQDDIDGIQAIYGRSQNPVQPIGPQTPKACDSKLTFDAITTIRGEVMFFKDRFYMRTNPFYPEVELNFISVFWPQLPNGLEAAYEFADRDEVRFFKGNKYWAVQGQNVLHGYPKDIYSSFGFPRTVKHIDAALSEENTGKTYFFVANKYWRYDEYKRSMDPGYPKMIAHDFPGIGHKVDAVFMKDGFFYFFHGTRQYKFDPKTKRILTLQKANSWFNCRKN

MMP-1 [2] = biological target: T1, MMP-1; test: Gel-filtration (Sephedex G25) / ESI mass spectral analysis of binding to MMP-1; details: 1 mM compound, 0.1 mM MMP-1, pH 6.5, room temperature, 30 minutes; unbound compound alone is retained
Protocol: 1 mM each of compounds 1, 2 and 3 (Table 1) were dissolved in DMSO and each incubated alone or in the presence of MMP-1 at a 0.1 mM in a buffer consisting of 20 mM Tris, 100 mM NaCl, 5 mM CaCl2, 0.1 mM ZnCl2, 2 mM NaN3 and 3.5 mM DTT at pH 6.5 at room temperature for 30 minutes. The final concentration of DMSO in the MMP-1:compound mixture was 5%. A total volume of 25 μl of each sample was loaded on a Sephedex G25 column in a Millipore multiscreen filtration system composed of a 0.65 μm hydrophilic durapore filter. The samples were eluted using centrifugation (15,000×g for 3 minutes). Samples were collected and analyzed by mass spectroscopy using automated ESI/MS methods in both positive and negative ionization modes with a Micromass LCT quadrapole time of flight mass spectrometer and Quattro I triple-quadrapole mass spectrometer each equipped with a Gilson 215 liquid handler.

MMP-1 [3] = biological target: T2, MMP-1 (Homo sapiens, UniProt P03956); test: 2D 1H-15N HSQC NMR chemical shift perturbation of 15N-MMP-1; type: binding; details: 0.2 mM 15N-MMP-1, compound 0.2-4.0 mM, pH 6.5, 35° C.
T2 construct: made in house
T2 sequence (P03956 101-269 limits assumed): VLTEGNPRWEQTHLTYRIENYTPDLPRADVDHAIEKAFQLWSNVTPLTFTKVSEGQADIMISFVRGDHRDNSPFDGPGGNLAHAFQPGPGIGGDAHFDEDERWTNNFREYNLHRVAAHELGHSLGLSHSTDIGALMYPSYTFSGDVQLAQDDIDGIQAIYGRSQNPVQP
Protocol: MMP-1 was labeled as described in Moy, J. Biomol. NMR, Vol. 10: 9-19 (1997). […] The 2D ^1H—^15N HSQC spectra were recorded with 256 complex points in t1, 2048 real points in t2, and 192 scans per increment. Spectra windows for t1 and t2 were 1723.7 and 8064.5 Hz, respectively, with the carrier at 4.75 and 115.2 ppm, respectively. Data were processed and analyzed using NMRPipe, NMRWish [F. Delaglio, S. Grzesiek, G. W. Vuister, G. Zhu, J. Pfeifer, and A. Bax J. Biomol. NMR 6, 277 (1995). ] and PIPP [D. S. Garrett, R. Powers, A. M. Gronenborn, and G. M. Clore J. Magn. Reson. 95, 214-20 (1991).] on a Sun Ultra 10 workstation. […] (FIG. 4A, 4B, 4C), i.e. stronger binding contributes to greater perturbations and weaker binding to less perturbations.

Row | Elution of compound through size-exclusion column in presence of MMP-1 (binding detected by ESI/MS) (MMP-1 [2]) | Compound | IC50 (MMP-1 [1]) | Chemical shift perturbations in 2D 1H-15N HSQC spectrum of MMP-1 (MMP-1 [3])
1 |  | 3-[4-(2-Azepan-1-yl-ethoxy)-phenyl]-N-hydroxy-2-(4-methoxy-benzenesulfonyl)-2-propionamide [Compound 13] | 540 nM | 
2 | compound bound to MMP-1 is eluted | COc1ccc(S(=O)(=O)N(Cc2cccnc2)[C@@H](C(=O)NO)C(C)C)cc1 [Compound 1, N2-(4-Methoxy-benzenesulfonyl)-N2-[(pyridin-3-yl)methyl]-N-hydroxy-D-valinamide] |  | 
3 | compound bound to MMP-1 is eluted | COc1ccc(S(=O)(=O)N(Cc2cccnc2)c2c(C(=O)O)cccc2C(=O)NO)cc1 [Compound 2, N-Hydroxy-2-[(4-methoxy-benzenesulfonyl)-pyridin-3-ylmethyl-amino]-isophthalamic acid] | 9900 nM | induce chemical shift perturbations for residues in the vicinity of the catalytic Zn and S1′ pocket in the MMP-1 active site
4 | compound bound to MMP-1 is eluted | COc1ccc(S(=O)(=O)N(CC(=O)O)c2c(C)cccc2C(=O)NO)cc1 [Compound 3, [(2-Hydroxycarbamoyl-6-methyl-phenyl)-(4-methoxy-benzenesulfonyl)-amino)-acetic acid] | 89000 nM | induce chemical shift perturbations for residues in the vicinity of the catalytic Zn and S1′ pocket in the MMP-1 active site
5 |  | COc1ccc(S(=O)(=O)N(Cc2ccccc2)c2ccc(C)cc2C(=O)NO)cc1 [Compound 4, 2-[Benzyl-(4-methoxy-benzenesulfonyl)-amino]-N-hydroxy-5-methyl-benzamide] | 408 nM | 
6 |  | COc1ccc(S(=O)(=O)C(CCC(C)C)(Cc2cccnc2)C(=O)NO)cc1 (centres unmarked) [Compound 7, 2-(4-Methoxy-benzenesulfonyl)-5-methyl-2-pyridin-3-ylmethyl-hexanoic acid hydroxyamide] | 760 nM | 
7 |  | Cc1cc(Br)cc(C(=O)NO)c1N(C)S(=O)(=O)c1ccc2ccccc2c1 [Compound 11, 5-Bromo-N-hydroxy-3-methyl-2-[methyl-(naphthalene-2-sulfonyl)-amino]-benzamide] | 1100 nM | 
